Row | melting point [°C] | Structure (SMILES)
1 | 177.5 to 178.5 | CC(=O)Nc1cccc(Oc2ccn3nc(-c4ccccc4)c(-c4ccc(=O)n(C(C)C)n4)c3c2)c1 [Example 36, N-(3-{[3-(3-oxo-2-isopropyl-2,3-dihydropyridazin-6-yl)-2-phenylpyrazolo[1,5-a]pyridin-5-yl]oxy}phenyl)acetamide]
2 | 181 to 182 | CC(C)n1nc(-c2c(-c3ccccc3)nn3ccc(Oc4ccccc4)cc23)ccc1=O [Example 37, 5-Phenoxy-3-(3-oxo-2-isopropyl-2,3-dihydropyridazin-6-yl)-2-phenylpyrazolo[1,5-a]pyridine]
3 | 193 to 194 | CCOC(=O)COc1ccn2nc(-c3ccccc3)c(-c3ccc(=O)n(C(C)C)n3)c2c1 [Example 38, Ethyl {[3-(3-oxo-2-isopropyl-2,3-dihydropyridazin-6-yl)-2-phenylpyrazolo[1,5-a]pyridin-5-yl]oxy}acetate]
4 | 189 to 190 | CC(C)n1nc(-c2c(-c3ccccc3)nn3ccc(OCC(=O)N(C)C)cc23)ccc1=O [Example 40, 2-{[3-(3-oxo-2-isopropyl-2,3-dihydropyridazin-6-yl)-2-phenylpyrazolo[1,5-a]pyridin-5-yl]oxy}-N,N-dimethylacetamide]
5 | 125 to 126.5 | CCN(CC)C(=O)COc1ccn2nc(-c3ccccc3)c(-c3ccc(=O)n(C(C)C)n3)c2c1 [Example 41, N,N-Diethyl-2-{[3-(3-oxo-2-isopropyl-2,3-dihydropyridazin-6-yl)-2-phenylpyrazolo[1,5-a]pyridin-5-yl]oxy}acetamide]
6 | 208 to 209 | CC(C)n1nc(-c2c(-c3ccccc3)nn3ccc(OCC(=O)Nc4ccccc4)cc23)ccc1=O [Example 44, 2-{[3-(3-Oxo-2-isopropyl-2,3-dihydropyridazin-6-yl)-2-phenylpyrazolo[1,5-a]pyridin-5-yl]oxy}-N-phenylacetamide]
7 | 167.5 to 168.5 | CC(C)CNC(=O)COc1ccn2nc(-c3ccccc3)c(-c3ccc(=O)n(C(C)C)n3)c2c1 [Example 45, N-Isobutyl-2-{[3-(3-oxo-2-isopropyl-2,3-dihydropyridazin-6-yl)-2-phenylpyrazolo [1,5-a]pyridin-5-yl]oxy}acetamide]
8 | 210.5 to 211 | CC(C)n1nc(-c2c(-c3ccccc3)nn3ccc(OC4CCOCC4)cc23)ccc1=O [Example 46, 5-(Tetrahydropyran-4-yl)oxy-3-(3-oxo-2-isopropyl-2,3-dihydropyridazin-6-yl)-2-phenylpyrazolo[1,5-a]pyridine]
9 | 148 to 150 | COc1ccc(Oc2ccn3nc(-c4ccccc4)c(-c4ccc(=O)n(C(C)C)n4)c3c2)nc1 [Example 47, 5-[(5-Methoxy-2-pyridinyl)oxy]-3-(3-oxo-2-isopropyl-2,3-dihydropyridazin-6-yl)-2-phenylpyrazolo[1,5-a]pyridine]
10 | 182 to 183.5 | CC(C)n1nc(-c2c(-c3ccccc3)nn3ccc(Oc4ccc([N+](=O)[O-])cn4)cc23)ccc1=O [Example 48, 5-[(5-Nitro-2-pyridinyl)oxy]-3-(3-oxo-2-isopropyl-2,3-dihydropyridazin-6-yl)-2-phenylpyrazolo[1,5-a]pyridine]
11 | 151 to 152 | CC(C)n1nc(-c2c(-c3ccccc3)nn3ccc(OCC(=O)N4CCN(C(=O)N(C)C)CC4)cc23)ccc1=O [Example 55, N,N-dimethyl-4-[{3-(3-oxo-2-isopropyl-2,3-dihydropyridazin-6-yl)-2-phenylpyrazolo[1,5-a]pyridin-5-yl}oxy]acetyl-1-piperazine carboxamide]
12 | 164 to 166 | CC(C)n1nc(-c2c(-c3ccccc3)nn3ccc(OC4CCN(C(=O)N(C)C)CC4)cc23)ccc1=O [Example 56, N,N-Dimethyl-4-[{3-(3-oxo-2-isopropyl-2,3-dihydropyridazin-6-yl)-2-phenylpyrazolo[1,5-a]pyridin-5-yl}oxy]-1-piperidine carboxamide]
13 | 117 to 119 | CC(C)n1nc(-c2c(-c3ccccc3)nn3ccc(OCC(=O)NCCN(C)C)cc23)ccc1=O [Example 58, N-[2-(dimethylamino)ethyl]-2-{[3-(3-oxo-2-isopropyl-2,3-dihydropyridazin-6-yl)-2-phenylpyrazolo[1,5-a]pyridin-5-yl]oxy}acetamide]
14 | 166 to 167.5 | COc1cccc(CNC(=O)COc2ccn3nc(-c4ccccc4)c(-c4ccc(=O)n(C(C)C)n4)c3c2)c1 [Example 59, 2-{[3-(3-Oxo-2-isopropyl-2,3-dihydropyridazin-6-yl)-2-phenylpyrazolo[1,5-a]pyridin-5-yl]oxy}-N-(3-methoxybenzyl)acetamide]
15 | 188 to 190 | CC(C)n1nc(-c2c(-c3ccccc3)nn3ccc(OCC(=O)NCCc4ccccn4)cc23)ccc1=O [Example 60, 2-{[3-(3-oxo-2-isopropyl-2,3-dihydropyridazin-6-yl)-2-phenylpyrazolo[1,5-a)pyridin-5-yl]oxy}-N-[2-(2-pyridinyl)-ethyl]acetamide]
16 | 199 to 200 | CC(C)n1nc(-c2c(-c3ccccc3)nn3ccc(OCC(=O)NC4CC4)cc23)ccc1=O [Example 61, N-Cyclopropyl-2-{[3-(3-oxo-2-isopropyl-2,3-dihydropyridazin-6-yl)-2-phenylpyrazolo[1,5-a]pyridin-5-yl]oxy}acetamide]
17 | 187 to 188 | CC(C)n1nc(-c2c(-c3ccccc3)nn3ccc(OCC(=O)NC4CCCC4)cc23)ccc1=O [Example 62, N-Cyclopentyl-2-{[3-(3-oxo-2-isopropyl-2,3-dihydropyridazin-6-yl)-2-phenylpyrazolo[1,5-a]pyridin-5-yl]oxy}acetamide]
18 | 170 to 171.5 | CC(C)n1nc(-c2c(-c3ccccc3)nn3ccc(OCC(=O)NC4CCCCC4)cc23)ccc1=O [Example 63, N-Cyclohexyl-2-{[3-(3-oxo-2-isopropyl-2,3-dihydropyridazin-6-yl)-2-phenylpyrazolo[1,5-a]pyridin-5-yl]oxy}acetamide]
19 | 146 to 148 | CC(C)n1nc(-c2c(-c3ccccc3)nn3ccc(OCC(=O)NC4CCC(O)CC4)cc23)ccc1=O (stereo not shown) [Example 64, N-(4-Hydroxycyclohexyl)-2-{[3-(3-oxo-2-isopropyl-2,3-dihydropyridazin-6-yl)-2-phenylpyrazolo[1,5-a]pyridin-5-yl]oxy}acetamide]
20 | 151 to 152 | CCCCNC(=O)COc1ccn2nc(-c3ccccc3)c(-c3ccc(=O)n(C(C)C)n3)c2c1 [Example 65, N-Butyl-2-{[3-(3-oxo-2-isopropyl-2,3-dihydropyridazin-6-yl)-2-phenylpyrazolo[1,5-a]pyridin-5-yl]oxy}acetamide]
21 | 144.5 to 145.5 | COCCNC(=O)COc1ccn2nc(-c3ccccc3)c(-c3ccc(=O)n(C(C)C)n3)c2c1 [Example 66, N-(2-Methoxyethyl)-2-[{3-(3-oxo-2-isopropyl-2,3-dihydropyridazin-6-yl)-2-phenylpyrazolo[1,5-a]pyridin-5-yl}oxy]acetamide]
22 | 126.5 to 127.5 | CCOCCNC(=O)COc1ccn2nc(-c3ccccc3)c(-c3ccc(=O)n(C(C)C)n3)c2c1 [Example 67, N-(2-Ethoxyethyl)-2-{[3-(3-oxo-2-isopropyl-2,3-dihydropyridazin-6-yl)-2-phenylpyrazolo[1,5-a]pyridin-5-yl]oxy}acetamide]
